Measured values published in patent US20210355539A1, “BIOMARKERS FROM MINIMALLY INVASIVE SAMPLING REFLECTIVE OF THE PLACENTAL IMMUNE MICROENVIRONMENT” (NEW YORK UNIVERSITY, priority 2020, published 2021).
Where two headings read alike, the source gives them in different places.

Experiments:
term placental explants = assay: Term placental explants treated with LPS and Cytochalasin-D, TNF-α ELISA; assay type: cell-based, human; settings: 2 LPS doses and Cytochalasin-D (9.8 uM)
Source text: Human first and second trimester placentas from elective termination of normal pregnancies (8 to 23 weeks gestation) were collected. The second trimester placenta samples were obtained after elective terminations induced by mechanical evacuation only. Human first and second trimester and term placentas were also collected from vaginal delivery or C-section. A placental explant system was used to preserve the normal cellular architecture. Placental samples from term and third trimester were collected from the maternal side as previously described (Kim et al., 2018, Am J Reprod Immunol, December 26: e13080). Placental explants were processed immediately after collection and prepared as previously described (Peltier et al., 2013, Am J Reprod Immunol, 69: 142e149). […]
Supernatant cytokine concentrations were analyzed using Ready-Set-Go™ ELISA kits (eBioscience; San Diego, Calif.). The measured cytokines included TNF-a, IL-1b and IL-10 and the concentrations were expressed in pg/ml.
For this reason, the kit was utilized for all of the following experiments to isolate EVs. […] Media were collected and analyzed. […] THP-1 cell culture media was collected after 24 h, and TNF-α levels were analyzed by ELISA (FIG. 2E). […]

human placenta = settings: cited from earlier work

Row | Compound | TNF-α production (term placental explants) [pg/mL] | effect on LPS induced inflammation and TNF-α production (human placenta; Speer et al., 2017, listed as pentoxifylline) | effect on LPS induced inflammation and TNF-α production (human placenta; Speer et al., 2017)
1 | C=C1[C@@H](C)[C@H]2[C@H](Cc3ccccc3)NC(=O)[C@]23[C@H](OC(C)=O)/C=C/[C@@](C)(O)C(=O)[C@@H](C)C/C=C/[C@H]3[C@@H]1O [Cytoclasin-D, Cytochalasin-D] | 18979 ± 7626 |  | 
2 | CC(=O)CCCCn1c(=O)c2c(ncn2C)n(C)c1=O [Pentoxixyline, pentoxifylline] |  | inhibits LPS induced TNF-α | inhibited LPS induced inflammation and TNF-α production
